# Experimental data from patent publication US10464925B2, “Methods to induce targeted protein degradation through bifunctional molecules” (Dana-Farber Cancer Institute, Inc., priority 2015, dated 2019).
# pIC50: −log10 of the molar value. Where two headings read alike, the source gives them in different places.
# Experiments:
# CRBN-DDB1 = molecular target: T1, CRBN-DDB1 (Homo sapiens, UniProt Q96SW2); assay: CRBN-DDB1 Ligand-Displacement AlphaScreen Assay (thalidomide competition); assay type: binding; conditions: read-out: CRBN alpha IC50;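 note: streptavidin donor and nickel chelate acceptor bead proximity signal after 30 min incubation, normalized with no-protein background as 0% and DMSO wells as 100% activity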
# T1 construct: 6xHis (given for the complex); made in house; host or cells: Sf9 cells (Invitrogen), pFastBac
# [1] = tested on: IKZF1 adjoined to nanoluciferase (Nluc); assay: IKZF1 Dual Luciferase Assay; assay type: cell-based; set-up: Nluc/Fluc IKZF1 Max Degradation: unit: %; conditions: 293 FT cells, 4 hours; for pIC50: read-out: Nluc/Fluc IKZF1 IC50
# 797 = assay: Cell viability, 797 cells (Table 4); assay type: cell-based; conditions: read-out: IC50 (nM) 797
# [2] = molecular target: T2, BRD4 adjoined to nanoluciferase (Nluc) (Homo sapiens, UniProt O60885+Q96SW2); assay: BRD4 Dual Luciferase Assay; assay type: cell-based; conditions: for Emax: BRD4 remaining at Emax, read-out: BRD4− Emax (percent remaining);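 for all read-outs here: transduced reporter cells exposed to compound for 4 h, then Nluc and Fluc luminescence read, each normalized to DMSO controls and expressed as Nluc/Fluc ratio per well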
# T2 construct: expressed in transfected cells
# [3] = 4 hours, read-out: max degradation (dual luc)
# [4] = read-out: BRD4 max degradation(%) Dual Luciferase
structure (smiles),measurement,setting,value
"O=C1CCC(N2C(=O)c3ccc(F)cc3C2=O)C(=O)N1 [Compound D-24, 2-(2,6-dioxopiperidin-3-yl)-5-fluoroisoindoline-1,3-dione]",pIC50,CRBN-DDB1,6.31
same,pIC50,[1],< 4.30
"Nc1cccc2c1C(=O)N(C1CCC(=O)NC1=O)C2=O [Compound D-4, 4-amino-2-(2,6-dioxopiperidin-3-yl)isoindoline-1,3-dione]",Nluc/Fluc IKZF1 Max Degradation,[1],66.43
CCOc1cccc2c1C(=O)N(C1CCC(=O)NC1=O)C2=O [Compound D-60],pIC50,CRBN-DDB1,6.59
"O=C1CCC(N2C(=O)c3cccc(O)c3C2=O)C(=O)N1 [Compound D-1, 2-(2,6-dioxopiperidin-3-yl)-4-hydroxyisoindoline-1,3-dione]",pIC50,[1],< 4.30
"CC(C)Nc1ccc2c(c1)C(=O)N(C1CCC(=O)NC1=O)C2=O [Compound D-26, 2-(2,6-dioxopiperidin-3-yl)-5-(isopropylamino)isoindoline-1,3-dione]",pIC50,CRBN-DDB1,6.95
same,pIC50,[1],< 4.30
"CC(=O)Nc1cccc2c1C(=O)N(C1CCC(=O)NC1=O)C2=O [Compound D-3, N-(2-(2,6-dioxopiperidin-3-yl)-1,3-dioxoisoindolin-4-yl)acetamide]",pIC50,CRBN-DDB1,6.18
same,Nluc/Fluc IKZF1 Max Degradation,[1],38.24
"O=C1CCC(N2C(=O)c3cccc(F)c3C2=O)C(=O)N1 [Compound D-14, 2-(2,6-dioxopiperidin-3-yl)-4-fluoroisoindoline-1,3-dione]",pIC50,CRBN-DDB1,6.22
same,pIC50,[1],< 4.30
"C[C@]1(N2C(=O)c3cccc(O)c3C2=O)CCC(=O)NC1=O [Compound D-53, (S)-4-hydroxy-2-(3-methyl-2,6-dioxopiperidin-3-yl)isoindoline-1,3-dione]",pIC50,CRBN-DDB1,4.25
O=C1CCC(N2C(=O)c3cccc([N+](=O)[O-])c3C2=O)C(=O)N1 [Compound D-56],pIC50,CRBN-DDB1,5.51
COC(=O)C[C@@H]1N=C(c2ccc(Cl)cc2)c2c(sc(C)c2C(=O)NCCCCNC(=O)COc2cccc3c2C(=O)N(C2CCC(=O)NC2=O)C3=O)-n2c(C)nnc21 (stereo partly drawn) [dBET25],IC50,797,6860 nM
same,Dmax,[2]; [3],41.7%
same,Dmax,[2]; [4],42%
"O=C1CCC(N2C(=O)c3ccc(NC(=O)CCl)cc3C2=O)C(=O)N1 [Compound D-32, 2-chloro-N-(2-(2,6-dioxopiperidin-3-yl)-1,3-dioxoisoindolin-5-yl)acetamide]",pIC50,CRBN-DDB1,7.67
Cc1cnc(Nc2ccc(N3CCN(C(=O)CCCNC(=O)COc4cccc5c4C(=O)N(C4CCC(=O)NC4=O)C5=O)CC3)cc2)nc1Nc1cccc(S(=O)(=O)NC(C)(C)C)c1 (stereo not drawn) [dBET20],IC50,797,14700 nM
same,Dmax,[2]; [3],7.04%
same,Dmax,[2]; [4],< 10%
Cc1sc2c(c1C)C(c1ccc(Cl)cc1)=N[C@@H](CC(=O)NCCOCCOCCNC(=O)COc1cccc3c1C(=O)N(C1CCC(=O)NC1=O)C3=O)c1nnc(C)n1-2 (stereo partly drawn) [dBET24],Conc@Emax,[2],5 µM
same,Dmax,[2]; [3],50.4%
same,Emax,[2],43%
same,Dmax,[2]; [4],50%
Cc1sc2c(c1C)C(c1ccc(Cl)cc1)=N[C@@H](CC(=O)NCCCCNC(=O)CNc1cccc3c1CN(C1CCC(=O)NC1=O)C3=O)c1nnc(C)n1-2 (stereo partly drawn) [dBET35],IC50,797,372 nM
same,Dmax,[2]; [3],11.7%
same,Dmax,[2]; [4],12%
"CC(=O)NCc1cccc2c1C(=O)N(C1CCC(=O)NC1=O)C2=O [Compound D-23, N-((2-(2,6-dioxopiperidin-3-yl)-1,3-dioxoisoindolin-4-yl)methyl)acetamide]",pIC50,CRBN-DDB1,6.19
same,Nluc/Fluc IKZF1 Max Degradation,[1],59.03
Cc1sc2c(c1C)C(c1ccc(Cl)cc1)=N[C@@H](CC(=O)NCCCCC(=O)Nc1cccc3c1CN(C1CCC(=O)NC1=O)C3=O)c1nnc(C)n1-2 (stereo partly drawn) [dBET42],IC50,797,7720 nM
same,Dmax,[2]; [3],10%
same,Dmax,[2]; [4],10%
"C[C@@]1(N2C(=O)c3cccc(OCC(=O)O)c3C2=O)CCC(=O)NC1=O [Compound D-54, (R)-2-((2-(3-methyl-2,6-dioxopiperidin-3-yl)-1,3-dioxoisoindolin-4-yl)oxy)acetic acid]",pIC50,CRBN-DDB1,< 4.30
"C[C@@]1(N2C(=O)c3cccc(O)c3C2=O)CCC(=O)NC1=O [Compound D-52, (R)-4-hydroxy-2-(3-methyl-2,6-dioxopiperidin-3-yl)isoindoline-1,3-dione]",pIC50,CRBN-DDB1,4.40
Cc1sc2c(c1C)C(c1ccc(Cl)cc1)=N[C@@H](CC(=O)NCCCCCCC(=O)Nc1cccc3c1CN(C1CCC(=O)NC1=O)C3=O)c1nnc(C)n1-2 (stereo partly drawn) [dBET43],IC50,797,2250 nM
same,Dmax,[2]; [3],13%
same,Dmax,[2]; [4],13%
Cc1sc2c(c1C)C(c1ccc(Cl)cc1)=N[C@@H](CC(=O)NCc1ccc(CNC(=O)COc3cccc4c3C(=O)N(C3CCC(=O)NC3=O)C4=O)cc1)c1nnc(C)n1-2 (stereo partly drawn) [dBET41],IC50,797,726 nM
Cc1sc2c(c1C)C(c1ccc(Cl)cc1)=N[C@@H](CC(=O)NCCCCCCCC(=O)Nc1cccc3c1CN(C1CCC(=O)NC1=O)C3=O)c1nnc(C)n1-2 (stereo partly drawn) [dBET44],IC50,797,719 nM
same,Dmax,[2]; [4],< 10%
"CC(C)(C)OC(=O)NCCNc1cccc2c1C(=O)N(C1CCC(=O)NC1=O)C2=O [Compound D-29, tert-butyl (2-((2-(2,6-dioxopiperidin-3-yl)-1,3-dioxoisoindolin-4-yl)amino)ethyl)carbamate]",pIC50,CRBN-DDB1,6.85
COC(=O)COc1cccc2c1C(=O)N(C1CCC(=O)NC1=O)C2=O [Compound D-65],pIC50,CRBN-DDB1,5.95
Cc1sc2c(c1C)C(c1ccc(Cl)cc1)=N[C@@H](CC(=O)NCCOCCOc1cccc3c1C(=O)N(C1CCC(=O)NC1=O)C3=O)c1nnc(C)n1-2 (stereo partly drawn) [dBET27],Conc@Emax,[2],0.5 µM
same,Dmax,[2]; [3],30%
same,Emax,[2],67.3%
same,Dmax,[2]; [4],30%
COC(=O)C[C@@H]1N=C(c2ccc(Cl)cc2)c2c(sc(C)c2C(=O)NCCCCCCCCNC(=O)COc2cccc3c2C(=O)N(C2CCC(=O)NC2=O)C3=O)-n2c(C)nnc21 (stereo partly drawn) [dBET26],IC50,797,7020 nM
same,Dmax,[2]; [3],39.9%
same,Dmax,[2]; [4],40%
Cc1sc2c(c1C)C(c1ccc(Cl)cc1)=N[C@@H](CC(=O)NCCCCCCCCOc1cccc3c1C(=O)N(C1CCC(=O)NC1=O)C3=O)c1nnc(C)n1-2 (stereo partly drawn) [dBET21],IC50,797,630 nM
same,Emax,[2],78.1%
same,Dmax,[2]; [4],21%
"Cc1nc2cccc(N)c2c(=O)n1C1CCC(=O)NC1=O [Compound D-17, 3-(5-amino-2-methyl-4-oxoquinazolin-3(4H)-yl)piperidine-2,6-dione]",Nluc/Fluc IKZF1 Max Degradation,[1],67.59
"O=C1CCC(N2C(=O)c3c(Cl)ccc(Cl)c3C2=O)C(=O)N1 [Compound D-51, 4,7-dichloro-2-(2,6-dioxopiperidin-3-yl)isoindoline-1,3-dione]",pIC50,CRBN-DDB1,5.93
Cc1sc2c(c1C)C(c1ccc(Cl)cc1)=N[C@@H](CC(=O)NCCCCNC(=O)Cc1cccc3c1C(=O)N(C1CCC(=O)NC1=O)C3=O)c1nnc(C)n1-2 (stereo partly drawn) [dBET36],IC50,797,725 nM
O=C1CCC(N2C(=O)c3ccc([N+](=O)[O-])cc3C2=O)C(=O)N1 [Compound D-61],pIC50,CRBN-DDB1,5.58
"O=C1CCC(N2C(=O)c3cccc(NCc4ccccc4)c3C2=O)C(=O)N1 [Compound D-16, 4-(benzylamino)-2-(2,6-dioxopiperidin-3-yl)isoindoline-1,3-dione]",pIC50,CRBN-DDB1,7.15
same,Nluc/Fluc IKZF1 Max Degradation,[1],67.23
Cc1c(C(=O)NCCCCCCCCNC(=O)COc2cccc3c2C(=O)N(C2CCC(=O)NC2=O)C3=O)sc2c1C(c1ccc(Cl)cc1)=N[C@@H](CC(=O)NCCCN1CCN(C)CC1)c1nnc(C)n1-2 (stereo partly drawn) [dBET31],Emax,[2],45.6%
Cc1sc2c(c1C)C(c1ccc(Cl)cc1)=N[C@@H](CC(=O)NCCCOCCCNC(=O)COc1cccc3c1C(=O)N(C1CCC(=O)NC1=O)C3=O)c1nnc(C)n1-2 (stereo partly drawn) [dBET38],IC50,797,770 nM
"O=C1CCC(N2C(=O)c3ccc(NCc4ccco4)cc3C2=O)C(=O)N1 [Compound D-28, 2-(2,6-dioxopiperidin-3-yl)-5-((furan-2-ylmethyl)amino)isoindoline-1,3-dione]",pIC50,CRBN-DDB1,7.40
O=C(O)COc1cccc2c1C(=O)N(C1CCC(=O)NC1=O)C2=O [Compound D-64],pIC50,CRBN-DDB1,5.67
COc1cc(C(=O)NCCCCNC(=O)COc2cccc3c2C(=O)N(C2CCC(=O)NC2=O)C3=O)ccc1Nc1ccc2c(n1)N(C1CCCC1)[C@H](C)C(=O)N2C (stereo partly drawn) [dBET16],IC50,797,4900 nM
"C[C@]1(N2C(=O)c3cccc(OCC(=O)O)c3C2=O)CCC(=O)NC1=O [Compound D-55, (S)-2-((2-(3-methyl-2,6-dioxopiperidin-3-yl)-1,3-dioxoisoindolin-4-yl)oxy)acetic acid]",pIC50,CRBN-DDB1,< 4.30
Cc1sc2c(c1C)C(c1ccc(Cl)cc1)=N[C@@H](CC(=O)NCCCCCCOc1cccc3c1C(=O)N(C1CCC(=O)NC1=O)C3=O)c1nnc(C)n1-2 (stereo partly drawn) [dBET29],Conc@Emax,[2],0.05 µM
same,Dmax,[2]; [3],19%
same,Emax,[2],75.5%
same,Dmax,[2]; [4],19%
Cc1sc2c(c1C)C(c1ccc(Cl)cc1)=N[C@@H](CC(=O)NCCCCCC(=O)NCc1cccc3c1C(=O)N(C1CCC(=O)NC1=O)C3=O)c1nnc(C)n1-2 (stereo partly drawn) [dBET37],IC50,797,1020 nM
same,Dmax,[2]; [3],46.4%
same,Dmax,[2]; [4],46%
CCOc1cccc2c1C(=O)N(C1CCC(=O)N(CC)C1=O)C2=O [Compound D-59],pIC50,CRBN-DDB1,< 4.30
COc1cc(C(=O)NCCCCCCCCNC(=O)COc2cccc3c2C(=O)N(C2CCC(=O)NC2=O)C3=O)ccc1Nc1ccc2c(n1)N(C1CCCC1)[C@H](C)C(=O)N2C (stereo partly drawn) [dBET45],IC50,797,3450 nM
O=C1CCC(N2C(=O)c3ccc(Br)cc3C2=O)C(=O)N1 [Compound D-58],pIC50,CRBN-DDB1,6.15
Cc1sc2c(c1C)C(c1ccc(Cl)cc1)=N[C@@H](CC(=O)NCCOCCOCCOc1cccc3c1C(=O)N(C1CCC(=O)NC1=O)C3=O)c1nnc(C)n1-2 (stereo partly drawn) [dBET40],IC50,797,299 nM
same,Dmax,[2]; [4],< 10%
"O=C1CCC(N2C(=O)c3ccc(C(=O)O)cc3C2=O)C(=O)N1 [Compound D-13, 2-(2,6-dioxopiperidin-3-yl)-1,3-dioxoisoindoline-5-carboxylic acid]",pIC50,[1],< 4.30
COc1cc(C(=O)NCCCOCCOCCOCCCNC(=O)COc2cccc3c2C(=O)N(C2CCC(=O)NC2=O)C3=O)ccc1Nc1ccc2c(n1)N(C1CCCC1)[C@H](C)C(=O)N2C (stereo partly drawn) [dBET46],IC50,797,9450 nM
